Data as given in US20100048411A1, “SUBSTRATE FOR THE GROWTH OF CULTURED CELLS IN THREE DIMENSIONS” (REINNERVATE LIMITED, priority 2006, published 2010).

How the values were obtained:
Format in all cases: cell-based, human
HepG2 cells [1] = assay: transglutaminase assay of HepG2 cells challenged with methotrexate
Description: (§1) The human hepatic carcinoma cell line, HepG2, was obtained from the American Type Culture Collection (ATCC). HepG2 cells were cultured at 37° C. in 5% CO2 in growth medium (Dulbecco's modified Eagle medium (D-MEM, Gibco/BRL) supplemented with 10% (v/v) fetal calf serum (FBS, Gibco/BRL), 100 μg.mL^−1 penicillin and 10 μg.mL^−1 streptomycin (Gibco/BRL)). Cells were passaged every 5-7 days. Confluent cultures of cells were washed with PBS, detached using trypsin/EDTA solution and cell number determined using a hemocytometer. Suspensions of HepG2 cells were then seeded at equal densities either directly into wells of a standard 6-welled plate (Nunc) or into modified well-inserts mounted with the polymer and located in wells of a 6-well plate. Cultures were maintained in growth medium which was changed every 3-4 days or as required.
(§2) Cells were seeded on 2-D and 3-D surfaces in triplicate and left to settle and adhere for 24 hours. […] Cells were subsequently incubated for 1, 3, 7 or 10 days, after which cultures were sampled and assayed for cell number/viability and levels of albumin and transglutaminase were determined.
The leakage of this enzyme is often used as a marker for in vitro toxicity testing and its presence indicates damage to cell membranes. […] The level of transglutaminase was analysed by means of a quantitative enzymatic assay (Sigma, UK) as previously described.

HepG2 cells [2] = assay: SEM and TEM morphology of HepG2 cells challenged with methotrexate
Description: Cells were seeded on 2-D and 3-D surfaces in triplicate and left to settle and adhere for 24 hours. The medium was then changed and replaced with medium containing different concentrations of MTX (no MTX (vehicle alone, control), 8 μM, 31 μM, and 125 μM). Cells were subsequently incubated for 1, 3, 7 or 10 days, after which cultures were sampled and assayed for cell number/viability and levels of albumin and transglutaminase were determined.
In preparation for SEM, cells grown on 2-D or 3-D substrates were fixed in 2% paraformaldehyde and 2.5% glutaraldehyde in Sorenson's phosphate buffer for 1 hour at room temperature. Samples were then rinsed in 0.1M phosphate buffer and immersed in 1% OsO4 (aq.) solution for 1 hour, then dehydrated in 50%, 70%, 95% and 100% ethanol for 5 minutes, four times for each respective ethanol change. Samples of fixed 2-D and 3-D cultures were then cut into smaller pieces (approximately 25 mm^2), mounted on specimen holders and dried from CO2 at 38° C. at 1200 psi. The samples were then sputter coated with a 7 nm layer of chromium and examined using a Hitachi S5200 SEM.
For TEM analysis, cells grown on 3-D substrates were fixed and treated as described above for SEM. However, subsequent to dehydration and being cut into small pieces, samples were embedded in resin (Araldite CY212, Agar Scientific) for 1 hour at 37° C. and then placed into pyramidal moulds at 60° C. overnight. For the preparation of cells grown on 2-D surfaces, cultures were fixed in 2% paraformaldehyde and 2.5% glutaraldehyde in Sorenson's phosphate buffer for 1 hour at room temperature. Cells were then scrapped from tissue culture plastic and pelleted at 15,000 rpm for 10 min. Pelleted cells were subsequently rinsed in 0.1M phosphate buffer and immersed in 1% OsO4 (aq.) solution for 1 hour, then dehydrated in 50%, 70%, 95% and 100% ethanol for 5 min, for times for each respective ethanol change. The dehydrated cell pellets were then soaked in resin (Araldite CY212) for 60 min at 37° C. […]

HepG2 cells [3] = assay: albumin secretion of HepG2 cells challenged with methotrexate
Description: as §1, §2
The production of albumin is often used as an indicator of hepatocyte metabolic activity. Levels of albumin were determined using a commercially available kit (Bioassay systems) based on an established method that utilizes bromocresol green which forms a coloured complex specifically with albumin that is detectable at 620 nm. Known quantities of human albumin were used to establish the standard curve. Specific levels of albumin secretion were normalized to total protein levels (as determined by a standard Bradford assay).

HepG2 cells [4] = assay: MTT viable cell number of HepG2 cells challenged with methotrexate on 2-D and 3-D substrates
Description: as §1
The number of viable cells was determined using a commercially available calorimetric assay (Promega) based on Mosmann's original method for measuring cell activity involving the conversion of a tetrazolium salt into a blue formazan product detectable by a spectrophotometer (570 nm). The assay was performed according to the manufacturer's instructions on HepG2 cells cultured on 2-D and 3-D substrates for various periods under alternative growth conditions.
as §2

albumin secretion (metabolic activity) (HepG2 cells [3]; cells cultured on scaffolds (3-D), 15.6 μM MTX): did begin to reduce albumin secretion
albumin secretion (metabolic activity) (HepG2 cells [3]; cells grown in 2-D, 8 μM MTX): sensitive
SMILES: CN(Cc1cnc2nc(N)nc(N)c2n1)c1ccc(C(=O)N[C@@H](CCC(=O)O)C(=O)O)cc1 [MTX, methotrexate]
transglutaminase levels (HepG2 cells [1]; 2-D cultures, 31 μM MTX and above, versus 3-D culture): significantly higher levels of transglutaminase
transglutaminase levels (HepG2 cells [1]; 3-D cultures, increasing concentration of MTX): did not cause a significant increase in transglutaminase levels
ultra-structure (TEM) (HepG2 cells [2]; 2-D cultures, 8 μM MTX): areas of cellular necrosis were also evident
ultra-structure (TEM) (HepG2 cells [2]; 2-D cultures, high levels of MTX): most cells became necrotic
ultra-structure (TEM) (HepG2 cells [2]; 3-D culture, 125 μM MTX): the nuclear membrane had an irregular morphology
albumin secretion (metabolic activity) (HepG2 cells [3]; cells grown in 3-D, 8 μM MTX): did not significantly influence albumin secretion
cell viability (MTT absorbance) (HepG2 cells [4]; 3-D cultures, 62 μM MTX, compared to control values): significant decrease in absorbance levels
cell viability (MTT absorbance) (HepG2 cells [4]; HepG2 monolayers (2-D), 15 μM MTX, after 24 hours): gradual increase of absorbance
cell viability (MTT absorbance) (HepG2 cells [4]; cells on 2-D surfaces, increasing MTX concentrations): visibly reduced
cell viability (MTT absorbance) (HepG2 cells [4]; monolayers (2-D), 7 days, 125 μM MTX): sharp decrease in absorbance levels
